Laboratory results as given in PubChem BioAssay (NCI).
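A five-concentration, 48-hour dose response in 96-well plates underlies each endpoint, interpolated linearly between surrounding concentrations. Definition used: TGI = concentration required for complete inhibition of growth.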 Where a SMILES comes first, the peptide text is derived from it. [ ]: non-standard residue; d: D form. The star is where a group is joined. ξ: configuration not given here. Propanoyl(3-(4-MeO-Ph)) = COc1ccc(CCC(=O)*)cc1; Thr(3ξ) = CC(O)[C@H](N)C(=O)O; dNMeL = CN[C@H](CC(C)C)C(=O)O; OBn = c1ccc(CO*)cc1; ξLac = CC(O)C(=O)O

Tests used:
Experiment in all cases: NCI tumour cell line growth inhibition, 48 h
786-0 renal = tested on: 786-0 renal
ACHN renal = tested on: ACHN renal
DU-145 prostate = tested on: DU-145 prostate
HOP-62 NSCLC = tested on: HOP-62 NSCLC
HS 578T breast = tested on: HS 578T breast
IGROV1 ovarian = tested on: IGROV1 ovarian
MDA-MB-435 = tested on: MDA-MB-435
SK-MEL-2 melanoma = tested on: SK-MEL-2 melanoma
UACC-257 melanoma = tested on: UACC-257 melanoma
UO-31 renal = tested on: UO-31 renal

COc1cc(C2SCC(=O)N2c2ccc(Cl)cc2)cc(I)c1O (stereo not given)
TGI (786-0 renal): > 100 µM
TGI (ACHN renal): > 100 µM
TGI (DU-145 prostate): > 100 µM
TGI (HOP-62 NSCLC): > 100 µM
TGI (HS 578T breast): > 100 µM
TGI (IGROV1 ovarian): > 100 µM
TGI (MDA-MB-435): > 100 µM
TGI (SK-MEL-2 melanoma): > 100 µM
TGI (UACC-257 melanoma): > 100 µM
TGI (UO-31 renal): > 100 µM

COc1ccccc1N=N/C(=N/NC(=O)c1ccc(C)cc1)c1ccc(N(CCC#N)CCC#N)cc1OC
TGI (786-0 renal): > 100 µM
TGI (ACHN renal): 55.9 µM
TGI (DU-145 prostate): > 100 µM
TGI (HOP-62 NSCLC): > 100 µM
TGI (HS 578T breast): > 100 µM
TGI (IGROV1 ovarian): > 100 µM
TGI (MDA-MB-435): > 100 µM
TGI (SK-MEL-2 melanoma): 39.5 µM
TGI (UACC-257 melanoma): > 100 µM
TGI (UO-31 renal): > 100 µM

O=C(/C=C/c1cccs1)c1cccc(C(=O)/C=C/c2cccs2)n1
TGI (786-0 renal): 38.2 µM
TGI (ACHN renal): > 100 µM
TGI (DU-145 prostate): > 100 µM
TGI (HOP-62 NSCLC): > 100 µM
TGI (HS 578T breast): > 94.8 µM
TGI (IGROV1 ovarian): > 100 µM
TGI (MDA-MB-435): > 100 µM
TGI (SK-MEL-2 melanoma): > 100 µM
TGI (UACC-257 melanoma): > 100 µM
TGI (UO-31 renal): > 100 µM

O=c1c(-c2ccccc2Cl)coc2cc(F)ccc12
TGI (786-0 renal): > 100 µM
TGI (ACHN renal): > 100 µM
TGI (DU-145 prostate): 83.9 µM
TGI (HOP-62 NSCLC): 62.2 µM
TGI (HS 578T breast): > 100 µM
TGI (IGROV1 ovarian): 51.5 µM
TGI (MDA-MB-435): 4.31 µM
TGI (SK-MEL-2 melanoma): > 100 µM
TGI (UACC-257 melanoma): > 100 µM
TGI (UO-31 renal): > 100 µM

CC1=C(C(=O)Nc2ccccc2)C(c2ccc(C)o2)C(C#N)=C(SCc2ccccc2)N1 (stereo not given)
TGI (786-0 renal): > 100 µM
TGI (ACHN renal): > 100 µM
TGI (DU-145 prostate): > 100 µM
TGI (HOP-62 NSCLC): > 100 µM
TGI (HS 578T breast): > 100 µM
TGI (IGROV1 ovarian): > 100 µM
TGI (MDA-MB-435): 24.6 µM
TGI (SK-MEL-2 melanoma): > 100 µM
TGI (UACC-257 melanoma): > 100 µM
TGI (UO-31 renal): > 100 µM

Cc1ccc2cccc3c2c1CC1(C3=O)S(=O)(=O)OCCOS1(=O)=O
TGI (786-0 renal): > 100 µM
TGI (ACHN renal): > 100 µM
TGI (DU-145 prostate): > 100 µM
TGI (HOP-62 NSCLC): > 100 µM
TGI (HS 578T breast): > 100 µM
TGI (IGROV1 ovarian): > 100 µM
TGI (MDA-MB-435): > 100 µM
TGI (SK-MEL-2 melanoma): > 100 µM
TGI (UACC-257 melanoma): > 100 µM
TGI (UO-31 renal): > 100 µM

COc1ccc(CCC(=O)OC(C)[C@H](NC(=O)[C@@H](CC(C)C)N(C)C(=O)[C@@H]2CCCN2C(=O)C(C)O)C(=O)OCc2ccccc2)cc1 (stereo not given in full) (H-[ξLac]P[dNMeL][Thr(3ξ)](Propanoyl(3-(4-MeO-Ph)))-OBn)
TGI (786-0 renal): > 100 µM
TGI (ACHN renal): > 100 µM
TGI (DU-145 prostate): > 100 µM
TGI (HOP-62 NSCLC): > 100 µM
TGI (HS 578T breast): 27.8 µM
TGI (IGROV1 ovarian): 91.9 µM
TGI (MDA-MB-435): 44.7 µM
TGI (SK-MEL-2 melanoma): 36.9 µM
TGI (UACC-257 melanoma): 35.6 µM
TGI (UO-31 renal): > 100 µM

OCCN=C1c2ccccc2C2C(c3ccccc31)C1c3ccccc3C(=NCCO)c3ccccc3C21 (stereo not given)
TGI (786-0 renal): 47.2 µM
TGI (ACHN renal): 76.9 µM
TGI (DU-145 prostate): 54.3 µM
TGI (HOP-62 NSCLC): 39.4 µM
TGI (HS 578T breast): 45.7 µM
TGI (IGROV1 ovarian): 98.5 µM
TGI (MDA-MB-435): 40.9 µM
TGI (SK-MEL-2 melanoma): 30.5 µM
TGI (UACC-257 melanoma): 69.2 µM
TGI (UO-31 renal): 32.6 µM

Clc1ccc2c(NCCNc3ccnc4cc(Cl)ccc34)ccnc2c1
TGI (786-0 renal): 28.2 µM
TGI (ACHN renal): 32.7 µM
TGI (DU-145 prostate): 48.2 µM
TGI (HOP-62 NSCLC): 30.1 µM
TGI (HS 578T breast): > 100 µM
TGI (IGROV1 ovarian): 36.6 µM
TGI (MDA-MB-435): 32 µM
TGI (SK-MEL-2 melanoma): 34.4 µM
TGI (UACC-257 melanoma): 32.3 µM
TGI (UO-31 renal): 29.1 µM

CC(NC(=O)C(N)CC(=O)O)NC(=O)N1CCOCC1 (stereo not given)
TGI (786-0 renal): > 100 µM
TGI (ACHN renal): > 100 µM
TGI (DU-145 prostate): > 100 µM
TGI (HOP-62 NSCLC): > 100 µM
TGI (HS 578T breast): > 100 µM
TGI (IGROV1 ovarian): > 100 µM
TGI (MDA-MB-435): > 100 µM
TGI (SK-MEL-2 melanoma): > 100 µM
TGI (UACC-257 melanoma): > 100 µM
TGI (UO-31 renal): > 100 µM

CC(C)CC1[C@@H](OCc2ccccc2)COS(=O)(=O)N1Cc1ccccc1 (stereo not given in full)
TGI (786-0 renal): > 100 µM
TGI (ACHN renal): > 100 µM
TGI (DU-145 prostate): > 100 µM
TGI (HOP-62 NSCLC): > 100 µM
TGI (HS 578T breast): 70 µM
TGI (IGROV1 ovarian): > 100 µM
TGI (MDA-MB-435): > 100 µM
TGI (SK-MEL-2 melanoma): > 100 µM
TGI (UACC-257 melanoma): > 100 µM
TGI (UO-31 renal): 97.6 µM

O=C1OC(C2OC(=O)c3cc(O)c(O)c(O)c3-c3c(O)c(O)c4oc(=O)c5c(c(O)c(O)c6oc(=O)c3c4c65)-c3c(cc(O)c(O)c3O)C(=O)OCC2O)C2OC(=O)c3c(c(O)c(O)c(O)c3[C@H]2O)-c2c1cc(O)c(O)c2O (stereo not given in full)
TGI (786-0 renal): 44.9 µM
TGI (ACHN renal): 80.3 µM
TGI (DU-145 prostate): > 100 µM
TGI (HOP-62 NSCLC): > 100 µM
TGI (HS 578T breast): > 100 µM
TGI (IGROV1 ovarian): > 100 µM
TGI (MDA-MB-435): 42.3 µM
TGI (SK-MEL-2 melanoma): > 100 µM
TGI (UACC-257 melanoma): > 100 µM
TGI (UO-31 renal): 81.9 µM

COc1ccc(CCc2ccc(O)c(C(=O)O)c2)cc1OC
TGI (786-0 renal): > 100 µM
TGI (ACHN renal): > 100 µM
TGI (DU-145 prostate): > 100 µM
TGI (HOP-62 NSCLC): > 100 µM
TGI (HS 578T breast): > 100 µM
TGI (IGROV1 ovarian): > 100 µM
TGI (MDA-MB-435): > 100 µM
TGI (SK-MEL-2 melanoma): > 100 µM
TGI (UACC-257 melanoma): > 100 µM
TGI (UO-31 renal): > 100 µM

O=S(=O)(O)c1ccc2c(N=Nc3ccccc3Cl)c(O)ccc2c1
TGI (786-0 renal): > 100 µM
TGI (ACHN renal): > 100 µM
TGI (DU-145 prostate): > 100 µM
TGI (HOP-62 NSCLC): > 100 µM
TGI (HS 578T breast): > 100 µM
TGI (IGROV1 ovarian): > 100 µM
TGI (MDA-MB-435): > 100 µM
TGI (SK-MEL-2 melanoma): > 100 µM
TGI (UACC-257 melanoma): > 100 µM
TGI (UO-31 renal): > 100 µM

CSc1ccc(/C=C2\N=C(c3ccccc3)N(c3nc4c(Cl)cc(Cl)cc4s3)C2=O)cc1
TGI (786-0 renal): > 100 µM
TGI (ACHN renal): 68.5 µM
TGI (DU-145 prostate): 93.7 µM
TGI (HOP-62 NSCLC): 39.7 µM
TGI (HS 578T breast): 64.6 µM
TGI (IGROV1 ovarian): > 100 µM
TGI (MDA-MB-435): 43.2 µM
TGI (SK-MEL-2 melanoma): 41.4 µM
TGI (UACC-257 melanoma): > 100 µM
TGI (UO-31 renal): 47.9 µM
